Values joined by “and” are separate entries in the source; they are usually repeats but may differ in a detail not shown here. Equal values may be shown once. Read-outs that look alike come from different tables or passages of the source.
How the values were obtained:
[1] = Lyophilized standard stocks reconstituted and analyzed by Hisep RP-HPLC (monomer to dimer conversion); format: physicochemical; settings: for Dimer area observed / Monomer area observed: single injections
Experimental: All vials contained a total of 15 nmol. Two vials of each standard were reconstituted by adding 150 μL of 50% acetonitrile/0.01% TFA to make a 100 μM stock solution; the remaining vials were reconstituted with 300 μL to make 50 μM stocks. The stocks were further diluted to the working concentration of 5 μm and analyzed. […] The stability of these standards were monitored over time.

[2] = Sample stability of DM1-related impurities with DS-DM1-deJ591 in the autosampler (Hisep RP-HPLC)
Experimental: The sample was analyzed at times t=0 h, 12 h, and 24 h. Sample stability was determined by comparing the area percent (area %) values of the stored sample to that of the initially-prepared solution (t=0 h).

[3] = 50 μM stock - lyophilized, average per vial
[4] = 100 μM stock - lyophilized, average per vial
[5] = 100 μM stock - lyophilized, vials 1 and 2

| % remaining area counts relative to t = 0 h (12 h) | % remaining area counts relative to t = 0 h (24 h) | SMILES | DM1 monomer to dimer conversion after lyophilization ([1]; 15 nmol vials lyophilized, reconstituted in 50% acetonitrile/0.01% TFA to 100 μM or 50 μM, diluted to 5 μM) | Dimer area observed, Average [1, 3] | Monomer area observed, Average [1, 3] | Dimer area observed ([1]; 50 μM stock - lyophilized) | Monomer area observed ([1]; 50 μM stock - lyophilized, vials 1 and 2) | Dimer area observed, Average [1, 4] | Monomer area observed, Average [1, 4] | Dimer area observed [1, 5] | Monomer area observed [1, 5] | Monomer area observed, Average ([1]; 100 μM stock - untreated) | Monomer area observed ([1]; 100 μM stock - untreated) | Average peak area ([2]; t = 0 h) | Average peak area ([2]; t = 12 h) | Average peak area ([2]; t = 24 h) |
| --- | --- | --- | --- | --- | --- | --- | --- | --- | --- | --- | --- | --- | --- | --- | --- | --- |
|  |  | COc1cc2cc(c1Cl)N(C)C(=O)C[C@H](OC(=O)[C@H](C)N(C)C(=O)CCS)[C@]1(C)O[C@H]1[C@H](C)[C@@H]1C[C@@](O)(NC(=O)O1)[C@H](OC)/C=C/C=C(\C)C2 [DM1 monomer] | significant DM1 monomer→dimer conversion | 10669 | 476235 and 412633 | 10097 and 10809 and 11100 | 476970 and 475075 and 476660 and 415292 and 411974 and 410632 | 10086 and 10158 | 391081 and 417523 | 10508 and 8635 and 11114 and 10029 and 10666 and 9780 | 392043 and 391526 and 389675 and 418902 and 418204 and 415463 | 459843 | 459407 and 460238 and 459885 | 223667 | 217293 | 214265 |
| 96.83% | 98.20% | CC(CCC(=O)O)SSc1ccccn1 (stereo not shown) [PPA, 4-(2-pyridyldithio) pentanoic acid] |  |  |  |  |  |  |  |  |  |  |  | 15881 | 15377 | 15595 |
|  |  | S=c1cccc[nH]1 [mercaptopyridine] |  |  |  |  |  |  |  |  |  |  |  | 15446 | 15654 | 15620 |
|  |  | COc1cc2cc(c1Cl)N(C)C(=O)CC(OC(=O)C(C)N(C)CC(=O)CCSSC(C)CCC(=O)O)C1(C)OC1C(C)C1CC(O)(NC(=O)O1)C(OC)C=CC=C(C)C2 (stereo not shown) [DM1-TPA adduct, DM1-thiopentanoic acid adduct] |  |  |  |  |  |  |  |  |  |  |  | 246302 | 245410 | 245126 |

From patent publication US20060073528A1, “Measurement methods” (priority 2004, published 2006)
